Data published in patent publication US20070105873A1 (priority 2003, published 2007).

Key:
Phytophthora infestans = format: in vivo; conditions: tomato cultivar Goldene Prinzessin, sprayed with 250 ppm a.i., infected next day, visual rating after 6 days; untreated 80
Alternaria solani = assay: Persistency against early blight on tomatoes caused by Alternaria solani, protective treatment; format: in vivo; conditions: tomato cultivar Goldene Prinzessin, sprayed with 16 ppm a.i., infected only after seven days, rating after a further 5 days; untreated 90
Description: The active compounds were prepared separately as a stock solution with 0.25% by weight of active compound in acetone or DMSO. 1% by weight of the emulsifier Uniperol® EL (wetting agent having emulsifying and dispersing action based on ethoxylated alkylphenols) was added to this solution. The stock solutions of the active compounds were diluted with water to the stated concentration.
2. Persistency Against Early Blight on Tomatoes Caused by Alternaria solani, Protective Treatment
Leaves of potted plants of the cultivar “Goldene Prinzessin” were sprayed to runoff point with an aqueous suspension having the concentration of active compound stated below.
To test for persistency, the leaves were infected with an aqueous spore suspension of Alternaria solani in a 2% strength biomalt solution having a density of 0.17×10^6 spores/ml only after seven days. The plants were then placed in a water-vapor-saturated chamber at 20-22° C. After a further 5 days, the disease on the untreated, but infected control plants had developed to such an extent that the infection could be determined visually in %.

SMILES: C[C@H](Nc1nc(C(N)=O)nc(Cl)c1-c1c(F)cc(F)cc1F)C(F)(F)F [I-5, 4-chloro-6-((S)-2,2,2-trifluoro-1-methylethylamino)-5-(2,4,6-trifluorophenyl)-pyrimidine-2-carboxamide]
- infection at 250 ppm of a.i. (% leaf area) (Phytophthora infestans): 0 % leaf area
- infection at 16 ppm of a.i. (% leaf area) (Alternaria solani): 30 % leaf area

SMILES: CC(C)OC(=O)c1nc(Cl)c(-c2c(F)cc(F)cc2F)c(N[C@@H](C)C(F)(F)F)n1 [V-3, isopropyl 4-chloro-6-((S)-2,2,2-trifluoro-1-methylethylamino)-5-(2,4,6-trifluorophenyl)pyrimidine-2-carboxylate]
- infection at 250 ppm of a.i. (% leaf area) (Phytophthora infestans): 5 % leaf area
